Results from patent EP0430108A2, “Use of oxetanocin-G for the treatment of varicella-zoster virus infections” (priority 1989, dated 1991).

Legend:
[1] = tested on: YS strain (TK^+ -VZV); test: Anti-VZV activity, plaque reduction in human fetal pulmonary cells, YS strain; format: cell-based, varicella-zoster virus; conditions: nonresistant strain of VZV (YS, TK^+); human fetal pulmonary cell monolayer, approximately 20 PFU, 5 days at 37 °C, plaque count
Experimental: (§1) Next, the anti-VZV effect of OXT-G will be described in detail by reference to the following Test Example. Anti-VZV activity: • (1) Determination method A monolayer of human fetal pulmonary cells, which had been grown in Eagle minimum essential medium containing 10 % of newborn calf serum, 60 µg/ml of kanamycin and 0.075 % of NaHCO₃, (used as a growth medium) in a 96-well microplate, was inoculated with approximately 20 PFU of various viruses and incubated at 37 °C for 2 hours. After 0.1 ml of 2 % newborn calf serum containing OXT-G was freshly supplied, the incubation was continued at 37 °C for 5 days. Plaques in each well were counted under a microscope and the ratio (%) thereof to the plaque count of a control (no addition) was calculated to prepare a graph. Based on the graph, the median effective dose (ED₅₀) was determined. The employed virus stains were as follows: YS strain: TK^+ strain (carrying thymidine kinase) isolated from a patient of varicella (TK^+ -VZV). […] Thus it is expected as an excellent anti-VZV agent.

[2] = Single-dose intraperitoneal toxicity in the mouse; format: in vivo; conditions: 400 mg/kg intraperitoneally, once
Excerpt: OXT-G and a pharmacologically acceptable salt thereof are each characterized by a low toxicity and a low cumulative toxicity upon repeated administration.

[3] = tested on: YSR strain (TK^- -VZV); test: Anti-VZV activity, plaque reduction in human fetal pulmonary cells, YSR strain; format: cell-based, varicella-zoster virus; conditions: resistant strain of VZV (YSR, TK^-, drug-resistant); human fetal pulmonary cell monolayer, approximately 20 PFU, 5 days at 37 °C, plaque count
Experimental: as §1

Nc1nc2c(ncn2C2OC(CO)C2CO)c(=O)[nH]1 (stereo not drawn) [OXT-G, oxetanocin-G]
antiviral effects [1]: excellent antiviral effects | symptom of intoxication [2]: no symptom of intoxication could be observed | antiviral effects [3]: excellent antiviral effects
